Entries after “also recorded” stand apart in the source; their conditions may differ.
Tests used:
[1] = tested on: HbSS Townes sickle mice; experiment: Heme-induced vaso-occlusion (stasis) in HbSS Townes sickle mice; type: in vivo; conditions: 10, 25, 50 mg/kg PO once daily for 8 days, 1 h after heme infusion
From the text: Townes-SS mice were gavaged once daily with Vehicle or the compound of Example 17 for 8 days. After the last gavage dorsal skin-fold chambers were implanted on the mice and 20-22 flowing venules were selected and mapped in the subcutaneous skin using intravital microscopy. Mice were then infused via the tail vein with Panhematin (3.2 μmots heme/kg body weight). One hour after infusion each venule was re-examined for microvascular stasis (no flow) and data are expressed as % stasis. Stasis values are means+SD. One-Way ANOVA with Dunnett's Multiple comparison to Vehicle ****P<0.0001
(§1) Dosing Scheme of HMOX Inducers to HbSS Townes Sickle Mice
(§2) HbSS Townes sickle mice were oral gavaged once daily with Vehicle or the compound of Example 17 listed below for 8 days. To minimize experimental inconsistency, fresh formulation was prepared every day and vortexed prior to drawing test article into syringe for each dosing, and dosing was performed by the same individual throughout the day. The last-day dose was administered by oral gavage 4 hours prior to hemin infusion described below. • 1. […]
Male and female sickle mice, approximately 12 weeks of age, were weighed before surgery. […] All of the selected venules were re-examined at 1 h after hemin infusion, and the number of static (no flow) venules was counted and expressed as percent stasis. […]

[2] = tested on: HbSS Townes sickle mice; experiment: F-cells (HbF-containing red blood cells) in HbSS Townes sickle mice; type: in vivo
From the text: Blood smears were made using heparinized whole blood for F-cells staining. Stained F-cells and total red blood cells were counted on the blood smears in four fields; mean=77 red blood cells/field. F-cells are expressed as a percentage of total red blood cells. Values are means+SD. One-Way ANOVA with Dunnett's Multiple comparison to Vehicle **p≤0.01, ***p≤0.001, ****p≤0.0001
as §1, §2
F-cells were stained on whole blood smears by the Kleihauer-Betke method using a fetal cell stain kit (Simmler) according to the manufacturer's instructions. F-cells and total erythrocytes were counted in 4 separate microscopic fields at 100× magnification for each mouse. The F-cells were expressed as a percentage of total erythrocytes (i.e., red blood cells). […]

[3] = tested on: Primary human pulmonary artery endothelial cells (HPAEC); experiment: Glutathione (GSH) levels in primary human endothelial cells under hemin stress; type: cell-based
Procedure: Example 149. Glutathione (GSH) Levels in Primary Human Endothelial Cells
Primary human pulmonary artery endothelial cells (HPAEC) (Lonza # CC-2530) cultured in endothelial cell growth medium-2 (EGM2 media, Lonza # CC-3162) were seeded in white 96-well plate (Corning® #3610) at 12.5 k cells per well and placed at 37° C. in 5% CO2. 18-24 hr post seeding, cells were treated with the compound of Example 17 via media change. 24 hr post treatment with the compound, cells were treated using a freshly prepared hemin stock (Sigma-Aldrich #51280 in 0.1N NaOH) alone or with the compound of Example 17. […] Media was aspirated off and GSH-Glo™ Glutathione Assay (Promega # V6911) was run following the manufacturer's protocol. White bottom plate seal (PerkinElmer #6005199) was used during read. Analysis was done using Softmax Pro.

[4] = tested on: VCAM-1; experiment: Gene expression (VCAM-1) in primary human endothelial cells stimulated with TNFa; type: cell-based; conditions: HPAEC
Procedure: Example 150. Gene Expression in Primary Human Endothelial Cells
Inflammatory conditions in endothelial cells increase expression of adhesion molecules, such as VCAM-1, ICAM-1 and E-selectin through NF-kB signaling. HMOX1−/− endothelial cells show increased expression of VCAM-1 in response to TNF stimulation, as compared to HMOX+/+endothelial cells. See Seldon et al., J Immunol Dec. 1, 2007, 179 (11) 7840-7851.
Primary human pulmonary artery endothelial cells (HPAEC) (Lonza # CC-2530) were seeded in 12-well plates (TrueLine # TR5001) at 200 k cells per well and placed at 37° C. in 5% CO2. 18-24 hr post seeding, cells were treated with the compound of Example 17 via media change. 24 hr post treatment with the compound, cells were treated with 10 ng/mL TNFa (Invitrogen # PHC3015 in H2O) alone or with the compound of Example 17. […] 20 ng cDNA was mixed with water, iQ™ SYBR® Green Supermix (BioRad #170-8886), and 300 nM primer (IDT # NM_001078) for a total 10 ul reaction and loaded into 384-well white qPCR plates and subsequently analyzed using BioRad CFX384. […] To calculate fold change, the ΔCt on a per sample basis was calculated as Ct (Gene of interest)−Ct (Average of reference genes). The ΔΔCt was then calculated as ΔCt (experimental sample)−Average ΔCt (control group). Fold change was calculated as 2^−ΔΔCT.

Structure (SMILES): Cn1c(Nc2nc3ccccc3o2)nc2cc(C(=O)NCCOCCO)ccc21 [Example 17, 2-(benzo[d]oxazol-2-ylamino)-N-(2-(2-hydroxyethoxy)ethyl)-1-methyl-1H-benzo[d]imidazole-5-carboxamide]
- microvascular stasis compared with Vehicle (in words) [1]: significantly reduced; also recorded: dose responsively inhibit
- percent F-cells compared with vehicle (in words) ([2]; 10, 25, 50 mg/kg PO once daily for 8 days): significantly increased; also recorded: more than doubled; also recorded: did not appear to be dose responsive; also recorded: increase
- percent F-cells (of total red blood cells) ([2]; all doses tested (10, 25, 50 mg/kg PO, 8 days)): 55-70%
- GSH levels / protection from hemin mediated oxidative stress (in words) ([3]; 24 hr pre-incubation, 30 min hemin stress): protects these cells from hemin mediated oxidative stress
- toxicity by visual inspection of cells ([3]; after 30 min of hemin stress): no toxicity
- TNF-α mediated endothelial cell activation / VCAM-1 expression (in words) ([4]; 24 hr pre-treatment, 10 ng/mL TNFa 4 hours): reduced this TNF-α mediated endothelial cell activation
- toxicity by visual inspection of cells ([4]; after 4 hours of TNFa treatment): no toxicity
